Nine compounds from ChEMBL document CHEMBL1148189, “New diterpenes from the gorgonian Solenopodium excavatum” (1993) can be followed below.

In brackets after ≈: the same amount, converted by molar mass. Activity calls are given as the source filed them. The calls are words filed in the database; no cut-off is given here.

In one assay the test system is P388. The assay can be described thus: Cytotoxicity against mouse P388 cells. The class given is functional.
Conditions: not given
As for `CC(=O)O[C@H]1C[C@@H]2O[C@]2(C)[C@@H]2[C@@H](OC(C)=O)[C@]34O[C@@]3(C)C(=O)O[C@H]4/C=C(/CO)[C@H](OC(C)=O)C[C@H](OC(C)=O)[C@@]12C`, the outcome was inactive. Same read-out and setting: then `CCCC(=O)O[C@@H]1C/C(C)=C\[C@@H]2OC(=O)[C@]3(C)O[C@]23[C@H](OC(C)=O)[C@H]2[C@@]3(C)O[C@H]3[C@@H](O)[C@H](OC(C)=O)[C@]2(C)[C@H]1OC(C)=O`, with “inactive”; and `CC(=O)OC/C1=C/[C@@H]2OC(=O)[C@]3(C)O[C@]23[C@H](OC(C)=O)[C@H]2[C@@]3(C)O[C@H]3C[C@H](OC(C)=O)[C@]2(C)[C@@H](OC(C)=O)C[C@H]1OC(C)=O`, with “inactive”; and `CC(=O)O[C@@H]1[C@H]2[C@@]3(C)O[C@H]3[C@@H](O)[C@H](OC(C)=O)[C@]2(C)[C@@H](OC(C)=O)[C@H](OC(C)=O)C/C(C)=C\[C@@H]2OC(=O)[C@]3(C)O[C@@]213`, with “inactive”. Same read-out and setting: then `CC(=O)O[C@@H]1[C@@H]2O[C@]2(C)[C@@H]2[C@@H](OC(C)=O)[C@]34O[C@@]3(C)C(=O)O[C@H]4/C=C(/C)C[C@@H](OC(C)=O)[C@H](OC(C)=O)[C@@]2(C)[C@H]1OC(C)=O`, with “inactive”; and `CC(=O)O[C@H]1C[C@@H](OC(C)=O)/C(C)=C\[C@@H]2OC(=O)[C@]3(C)O[C@]23[C@H](OC(C)=O)[C@H]2[C@@](C)(O)[C@H](OC(C)=O)C=C[C@]12C`, with “inactive”; and `CC(=O)O[C@@H]1[C@H]2C(C)=C[C@@H](O)[C@H](OC(C)=O)[C@]2(C)[C@@H](OC(C)=O)[C@H](OC(C)=O)C/C(C)=C\[C@@H]2OC(=O)[C@]3(C)O[C@@]213`, with “inactive”. Turning to `CC(=O)O[C@@H]1[C@H]2[C@@H](C)[C@@H](O)[C@@H](O)[C@H](OC(C)=O)[C@]2(C)[C@@H](OC(C)=O)[C@H](OC(C)=O)C/C(C)=C\[C@@H]2OC(=O)[C@]3(C)O[C@@]213`, the outcome was inactive.

Still in this assay, the particulars now being: read-out: ED50 (the source's name).
As to `CCCC(=O)O[C@@H]1C/C(C)=C\[C@@H]2OC(=O)[C@]3(C)O[C@]23[C@H](OC(C)=O)[C@H]2C(C)=C[C@@H](O)[C@H](OC(C)=O)[C@]2(C)[C@H]1OC(C)=O` [STECHOLIDE I], the EC50 is 23 µg/mL (≈ 38.8 µM).
